Activity and Crop_yield data for 2 compounds are collected here from ChEMBL document CHEMBL3044665, “Adzuki bean (Vigna angularis) responses to post-emergence herbicides” (Crop Prot, 2006).

What all share (assay type): organism-based
Series [1] deals with Vigna angularis. The series is described as follows: Phytotoxicity in Vigna angularis (adzuki bean) assessed as visual injury at 2160 g ai/ha after 28 days applied as spray relative to untreated control. The following applies: in vivo, other, 672 h.
For series [2], the system named is Vigna angularis. The series is described as follows: Phytotoxicity in Vigna angularis (adzuki bean) assessed as visual injury at 2160 g ai/ha after 14 days applied as spray relative to untreated control. The following applies: in vivo, other, 336 h.
In series [3] the test system is Vigna angularis. The series is described as follows: Phytotoxicity in Vigna angularis (adzuki bean) assessed as visual injury at 2160 g ai/ha after 7 days applied as spray relative to untreated control. Conditions: in vivo, other, 168 h.
Series [4] has as its system Vigna angularis. Kind of series: Phytotoxicity in Vigna angularis (adzuki bean) assessed as decrease in shoot dry weight at 1080 g ai/ha after 42 days applied as spray relative to untreated control. On the set-up: scale not given: the % may be the effect or the level left. The following applies: in vivo, other, 1008 h.
The subject of series [5] is Phaseolus vulgaris. Kind of series: Phytotoxicity in Phaseolus vulgaris (dry bean) assessed as visual injury at 1080 g ai/ha applied as spray during post emergence relative to untreated control. Conditions: in vivo, other.
Series [6] has as its system Vigna angularis. Kind of series: Phytotoxicity in Vigna angularis (adzuki bean) assessed as visual injury at 1080 g ai/ha after 7 days applied as spray relative to untreated control. The following applies: in vivo, other, 168 h.
The test system of series [7] is Vigna angularis. Kind of series: Phytotoxicity in Vigna angularis (adzuki bean) assessed as decrease in plant height at 1080 g ai/ha after 28 days applied as spray relative to untreated control. On the set-up: scale not given: the % may be the effect or the level left. The following applies: in vivo, other, 672 h.
The test system of series [8] is Vigna angularis. Kind of series: Phytotoxicity in Vigna angularis (adzuki bean) assessed as decrease in shoot dry weight at 2160 g ai/ha after 42 days applied as spray relative to untreated control. On the set-up: scale not given: the % may be the effect or the level left. Conditions: in vivo, other, 1008 h.
Series [9] relates to Phaseolus vulgaris. The series is described as follows: Phytotoxicity in Phaseolus vulgaris (white navy bean) assessed as decrease in crop yield relative to untreated control. Conditions: in vivo.
The subject of series [10] is Vigna angularis. Kind of series: Phytotoxicity in Vigna angularis (adzuki bean) assessed as visual injury at 1080 g ai/ha after 14 days applied as spray relative to untreated control. Conditions: in vivo, other, 336 h.
In series [11] the test system is Phaseolus vulgaris. Kind of series: Phytotoxicity in Phaseolus vulgaris (cranberry bean) assessed as visual injury at 1080 g ai/ha applied as spray during post emergence after 7 days relative to untreated control. Conditions: in vivo, other, 168 h.
Series [12] has as its system Phaseolus vulgaris. The series is described as follows: Phytotoxicity in Phaseolus vulgaris (black bean) assessed as visual injury at 1080 g ai/ha applied as spray during post emergence after 7 days relative to untreated control. Conditions: in vivo, other, 168 h.
Series [13] concerns Vigna angularis. The series is described as follows: Phytotoxicity in Vigna angularis (adzuki bean) assessed as decrease in plant height at 2160 g ai/ha after 28 days applied as spray relative to untreated control. On the set-up: scale not given: the % may be the effect or the level left. Conditions: in vivo, other, 672 h.
The test system of series [14] is Vigna angularis. The series is described as follows: Phytotoxicity in Vigna angularis (adzuki bean) assessed as visual injury at 1080 g ai/ha after 28 days applied as spray relative to untreated control. The following applies: in vivo, other, 672 h.
In series [15] the test system is Vigna angularis. Kind of series: Phytotoxicity in Vigna angularis (adzuki bean) assessed as seed moisture content at 1080 g ai/ha after 42 days applied as spray (reference value: 13.9%). Conditions: in vivo, other, 1008 h, at 1080 g/ha.
Series [16] relates to Vigna angularis. The series is described as follows: Phytotoxicity in Vigna angularis (adzuki bean) assessed as decrease in crop yield at 2160 g ai/ha measured during post emergence applied as spray relative to untreated control. Conditions: in vivo, other.
The test system of series [17] is Vigna angularis. Kind of series: Phytotoxicity in Vigna angularis (adzuki bean) assessed as decrease in crop yield at 1080 g ai/ha measured during post emergence applied as spray relative to untreated control. Conditions: in vivo, other.
The subject of series [18] is Vigna angularis. The series is described as follows: Phytotoxicity in Vigna angularis (adzuki bean) assessed as seed moisture content at 2160 g ai/ha after 42 days applied as spray (reference value: 13.9%). The following applies: in vivo, other, 1008 h, at 2160 g/ha.
Series [19] relates to Vigna angularis. Kind of series: Phytotoxicity in Vigna angularis (adzuki bean) assessed as seed moisture content at 480 g ai/ha after 42 days applied as spray (reference value: 13.9%). Conditions: in vivo, other, 1008 h, at 480 g/ha.
The subject of series [20] is Vigna angularis. The series is described as follows: Phytotoxicity in Vigna angularis (adzuki bean) assessed as decrease in shoot dry weight at 480 g ai/ha after 42 days applied as spray relative to untreated control. On the set-up: scale not given: the % may be the effect or the level left. Conditions: in vivo, other, 1008 h.
Series [21] relates to Vigna angularis. Kind of series: Phytotoxicity in Vigna angularis (adzuki bean) assessed as visual injury at 240 g ai/ha after 28 days applied as spray relative to untreated control. The following applies: in vivo, other, 672 h.
In series [22] the test system is Vigna angularis. Kind of series: Phytotoxicity in Vigna angularis (adzuki bean) assessed as visual injury at 480 g ai/ha after 7 days applied as spray relative to untreated control. The following applies: in vivo, other, 168 h.
In series [23] the test system is Vigna angularis. Kind of series: Phytotoxicity in Vigna angularis (adzuki bean) assessed as crop yield at 240 g ai/ha measured during post-emergence applied as spray (reference value: 2.05 t/ha). Conditions: in vivo, other.
The subject of series [24] is Vigna angularis. The series is described as follows: Phytotoxicity in Vigna angularis (adzuki bean) assessed as visual injury at 480 g ai/ha after 14 days applied as spray relative to untreated control. Conditions: in vivo, other, 336 h.
Series [25] has as its system Vigna angularis. Kind of series: Phytotoxicity in Vigna angularis (adzuki bean) assessed as visual injury at 240 g ai/ha after 7 days applied as spray relative to untreated control. Conditions: in vivo, other, 168 h.
The subject of series [26] is Vigna angularis. Kind of series: Phytotoxicity in Vigna angularis (adzuki bean) assessed as seed moisture content at 240 g ai/ha after 42 days applied as spray (reference value: 13.9%). Conditions: in vivo, other, 1008 h, at 240 g/ha.
The subject of series [27] is Vigna angularis. The series is described as follows: Phytotoxicity in Vigna angularis (adzuki bean) assessed as plant height at 480 g ai/ha after 28 days applied as spray (RVB = 34 cm). The following applies: in vivo, other, 672 h.
Series [28] relates to Vigna angularis. The series is described as follows: Phytotoxicity in Vigna angularis (adzuki bean) assessed as visual injury at 240 g ai/ha after 14 days applied as spray relative to untreated control. Conditions: in vivo, other, 336 h.
Series [29] has as its system Vigna angularis. The series is described as follows: Phytotoxicity in Vigna angularis (adzuki bean) assessed as visual injury at 480 g ai/ha after 28 days applied as spray relative to untreated control. The following applies: in vivo, other, 672 h.
In series [30] the test system is Vigna angularis. The series is described as follows: Phytotoxicity in Vigna angularis (adzuki bean) assessed as plant height at 240 g ai/ha after 28 days applied as spray (RVB = 34 cm). Conditions: in vivo, other, 672 h.
Series [31] concerns Vigna angularis. Kind of series: Phytotoxicity in Vigna angularis (adzuki bean) assessed as crop yield at 480 g ai/ha measured during post emergence applied as spray (reference value: 2.05 t/ha). The following applies: in vivo, other.
For series [32], the system named is Vigna angularis. The series is described as follows: Phytotoxicity in Vigna angularis (adzuki bean) assessed as shoot dry weight at 240 g ai/ha measured per 1 m row after 42 days applied as spray (reference value: 153 g). The following applies: in vivo, other, 1008 h.

On to `CC(C)N1C(=O)c2ccccc2NS1(=O)=O` [BENTAZON], for which the Activity is 38.1% in the series with Vigna angularis [1]; 43.5% in the series with Vigna angularis [2]; 36.4% with Vigna angularis [3]; 60% in the series on Vigna angularis [4]; 3% in the series with Phaseolus vulgaris [5]; 29.5% with Vigna angularis [6]. Moreover, the Activity with Vigna angularis [7] is recorded as 37%; in the series with Vigna angularis [8], 65%; in the series with Vigna angularis [10] it was 33.2%; in the series with Phaseolus vulgaris [11] it was less than 2%; in the series on Phaseolus vulgaris [12], less than 3%; in the series on Vigna angularis [13] it was 43%. Moreover, the values for the Activity in the series with Vigna angularis [14], in the series on Vigna angularis [15] and with Vigna angularis [18] were 29.8%, 15% and 15.3%, respectively. For the same compound, the Crop_yield entry with Phaseolus vulgaris [9] was “<= 21%”; in the series on Vigna angularis [16], 56%; in the series with Vigna angularis [17] it was 48%.
`CS(=O)(=O)NC(=O)c1cc(Oc2ccc(C(F)(F)F)cc2Cl)ccc1[N+](=O)[O-]` [FOMESAFEN]: the Activity with Vigna angularis [19] came out at 14.4%; with Vigna angularis [20] it was 16%; in the series with Vigna angularis [21] it was 1.7%; in the series on Vigna angularis [22], 9.8%; in the series on Vigna angularis [24], 7.2%; in the series on Vigna angularis [25], 6.8%. For the same compound, the Activity in the series on Vigna angularis [26] stood at 14.2%; in the series on Vigna angularis [27], 31.3 cm; with Vigna angularis [28], 4.6%; in the series with Vigna angularis [29] it was 2.6%; in the series with Vigna angularis [30], 32.4 cm; in the series on Vigna angularis [32] it was 140 g. For the same compound, the results for the Crop_yield in the series with Vigna angularis [23] and with Vigna angularis [31] were 1.88 tons/ha and 1.81 tons/ha, respectively.
